Results published in patent US20250197864A1, “LNCRNA TRANSCRIPTS IN MELANOMAGENESIS” (The Regents of the University of California, priority 2021, published 2025).

Test system: gene expression in D04 melanoma cells
Test: RNA-Seq differential expression analysis (DESeq2)
Assay type: cell-based, human
Procedure: Total RNA was isolated using the RNeasy mini Kit (QIAGEN) following the manufacturer's protocol. Quality check for extracted RNA was done using 2100 Bioanalyzer (Agilent Technologies, USA) or Tapestation System (Agilent Technologies, USA). […] For samples used for identification of MAPK-responsive lncRNAs, paired-end, 101-bp sequencing was performed by Centrillion Genomic Services (Centrillion Biosciences, USA) on an Illumina HiSeq 2000. For DE gene analysis of ASO-transfected D04 samples, paired-end, 2×150-bp sequencing was performed by Genewiz (USA) on a Illumina HiSeq.
Sequence reads were aligned to the human genome (hg19) using TopHat (Version 2.0.11).
Differential expression (DE) analysis was done using DESeq2. Differentially expressed genes were defined by more than 1.5-fold changes (log 2 >0.58 or <−0.58) in expression with FDR<0.05. GO term analysis was done using DAVID Functional Annotation Clustering analysis.
To examine the biomolecular changes upon TRASH-inhibition in melanoma, D04 cells were treated with TRASH-ASOs (SEQ ID NO:15) and Control-ASOs and RNA was extracted and used for RNA-Seq. […] These GO terms consisted of genes encoding growth factors, tyrosine kinases, G protein coupled receptor subunits, and collagen subunits. Scatter plot diagram showing differential gene expression after TRASH-ASO treatment compared to Control-ASO treatment. (cut-off for significance was adjusted p-value <0.05). Data was obtained from RNA-Seq of D04 melanoma cells, treatment period was three days. (FIG. 5c)

[1] = D04 cells, three days, vs Control-ASO, cut off >1.5-fold change and FDR <0.05

Question: Which log2FoldChange (CATSPERG (ENSG00000099338)) does the source give for “GACTGGAGATAATTAA (gapmer, pattern not given here) [SEQ ID NO: 15, GapmeR ASO targeting AC004540.4 (TRASH), exon region of both isoforms; used for in vitro experiments]” here?
Answer: The log2FoldChange was 1.259.

Question: And the log2FoldChange (CCDC187 (ENSG00000260220))?
Answer: Its log2FoldChange is 2.881.

Question: What about the log2FoldChange (CD274 (ENSG00000120217)) of the same sequence?
Answer: Its log2FoldChange is 1.226.

Question: What about the log2FoldChange (CD300C (ENSG00000167850)) of the same sequence?
Answer: The log2FoldChange was 2.474.

Question: What about the log2FoldChange (CDH4 (ENSG00000179242)) of the same sequence?
Answer: Its log2FoldChange is 1.668.

Question: What about the log2FoldChange (CELF2 (ENSG00000048740)) of the same sequence?
Answer: The log2FoldChange was −0.6612.

Question: What about the log2FoldChange (CFI (ENSG00000205403)) of the same sequence?
Answer: The log2FoldChange was −0.6803.

Question: And the log2FoldChange (CHCHD10 (ENSG00000250479))?
Answer: The log2FoldChange was −0.6153.

Question: And the log2FoldChange (CHL1 (ENSG00000134121))?
Answer: The log2FoldChange was −0.6927.

Question: And the log2FoldChange (CHMP1B2P (ENSG00000278530))?
Answer: Its log2FoldChange is −0.6924.

Question: What about the log2FoldChange (CIITA (ENSG00000179583)) of the same sequence?
Answer: The log2FoldChange was −0.6508.

Question: What about the log2FoldChange (CLDN3 (ENSG00000165215)) of the same sequence?
Answer: The log2FoldChange was 1.402.

Question: What about the log2FoldChange (CNTN1 (ENSG00000018236)) of the same sequence?
Answer: Its log2FoldChange is −0.6103.

Question: And the log2FoldChange (CNTNAP3B (ENSG00000154529))?
Answer: The log2FoldChange was −0.6749.

Question: What about the log2FoldChange (COL4A5 (ENSG00000188153)) of the same sequence?
Answer: The log2FoldChange was −0.6293.

Question: What about the log2FoldChange (COL20A1 (ENSG00000101203)) of the same sequence?
Answer: The log2FoldChange was 2.951.

Question: And the log2FoldChange (COL27A1 (ENSG00000196739))?
Answer: Its log2FoldChange is −0.6335.

Question: And the log2FoldChange (COLGALT2 (ENSG00000198756))?
Answer: Its log2FoldChange is −0.6617.

Question: What about the log2FoldChange (CREB3L3 (ENSG00000060566)) of the same sequence?
Answer: Its log2FoldChange is −0.704.

Question: What about the log2FoldChange (CREG2 (ENSG00000175874)) of the same sequence?
Answer: The log2FoldChange was −0.6351.

Question: What about the log2FoldChange (CSF2RB (ENSG00000100368)) of the same sequence?
Answer: The log2FoldChange was 3.672.

Question: And the log2FoldChange (CSMD3 (ENSG00000164796))?
Answer: The log2FoldChange was −0.6823.

Question: And the log2FoldChange (CX3CL1 (ENSG00000006210))?
Answer: The log2FoldChange was −0.5835.

Question: And the log2FoldChange (CYP4F32P (ENSG00000223564))?
Answer: The log2FoldChange was −0.6527.

Question: What about the log2FoldChange (CYP27A1 (ENSG00000135929)) of the same sequence?
Answer: The log2FoldChange was −0.625.

Question: What about the “number of genes down-regulated” value [1] of the same sequence?
Answer: The value was 574 genes.

Question: And the “number of genes up-regulated” value [1]?
Answer: Its value is 493 genes.

Question: And the log2FoldChange (DAW1 (ENSG00000123977))?
Answer: The log2FoldChange was 2.338.

Question: And the log2FoldChange (DBNDD1 (ENSG00000003249))?
Answer: The log2FoldChange was −0.6098.

Question: What about the log2FoldChange (DCAF8L2 (ENSG00000189186)) of the same sequence?
Answer: The log2FoldChange was −0.6365.

Question: And the log2FoldChange (DCLK1 (ENSG00000133083))?
Answer: Its log2FoldChange is 2.001.

Question: What about the log2FoldChange (DHRS3 (ENSG00000162496)) of the same sequence?
Answer: The log2FoldChange was −0.6585.

Question: What about the log2FoldChange (DHRS11 (ENSG00000278535)) of the same sequence?
Answer: Its log2FoldChange is −0.6876.

Question: And the log2FoldChange (DLEU7 (ENSG00000186047))?
Answer: The log2FoldChange was 1.438.

Question: And the log2FoldChange (DLG4 (ENSG00000132535))?
Answer: The log2FoldChange was −0.6697.

Question: What about the log2FoldChange (DLX1 (ENSG00000144355)) of the same sequence?
Answer: Its log2FoldChange is −0.6655.

Question: And the log2FoldChange (DMPK (ENSG00000104936))?
Answer: The log2FoldChange was −0.6857.

Question: What about the log2FoldChange (DNAH6 (ENSG00000115423)) of the same sequence?
Answer: Its log2FoldChange is 1.798.

Question: And the log2FoldChange (DNAH11 (ENSG00000105877))?
Answer: Its log2FoldChange is 1.75.

Question: What about the log2FoldChange (DOK7 (ENSG00000175920)) of the same sequence?
Answer: The log2FoldChange was 1.741.

Question: And the log2FoldChange (DPF3 (ENSG00000205683))?
Answer: Its log2FoldChange is 1.473.

Question: And the log2FoldChange (DRGX (ENSG00000165606))?
Answer: The log2FoldChange was 1.312.

Question: What about the log2FoldChange (DYNC1I2 (ENSG00000077380)) of the same sequence?
Answer: Its log2FoldChange is −0.6997.

Question: And the log2FoldChange (EMILIN1 (ENSG00000138080))?
Answer: The log2FoldChange was −0.6247.

Question: What about the log2FoldChange (ENO3 (ENSG00000108515)) of the same sequence?
Answer: Its log2FoldChange is −0.6026.

Question: And the log2FoldChange (ENOX1 (ENSG00000120658))?
Answer: The log2FoldChange was −0.7019.

Question: And the log2FoldChange (ENOX2 (ENSG00000165675))?
Answer: The log2FoldChange was −0.6448.

Question: And the “log2FoldChange KDM7A” value (ENSG00000006459, up-regulated list)?
Answer: The value was 0.6751.

Question: What about the “log2FoldChange CCL26” value (ENSG00000006606, up-regulated list) of the same sequence?
Answer: The value was 0.6667.

Question: What about the “log2FoldChange BIRC3” value (ENSG00000023445, up-regulated list) of the same sequence?
Answer: Its value is 0.9484.

Question: And the “log2FoldChange NEDD4L” value (ENSG00000049759, up-regulated list)?
Answer: The value was 0.9476.

Question: What about the “log2FoldChange SLC4A8” value (ENSG00000050438, up-regulated list) of the same sequence?
Answer: The value was 1.215.

Question: And the “log2FoldChange RRP12” value (ENSG00000052749, up-regulated list)?
Answer: The value was 0.614.

Question: What about the “log2FoldChange MCF2L2” value (ENSG00000053524, up-regulated list) of the same sequence?
Answer: The value was 0.71.

Question: What about the “log2FoldChange RASGRF1” value (ENSG00000058335, up-regulated list) of the same sequence?
Answer: The value was 1.152.

Question: What about the “log2FoldChange MPC1” value (ENSG00000060762, up-regulated list) of the same sequence?
Answer: Its value is 0.9395.

Question: What about the “log2FoldChange GSTO2” value (ENSG00000065621, up-regulated list) of the same sequence?
Answer: The value was 0.6503.

Question: What about the “log2FoldChange SPTB” value (ENSG00000070182, up-regulated list) of the same sequence?
Answer: The value was 0.7656.

Question: What about the “log2FoldChange ASNS” value (ENSG00000070669, up-regulated list) of the same sequence?
Answer: The value was 0.7766.

Question: What about the “log2FoldChange SLC6A15” value (ENSG00000072041, up-regulated list) of the same sequence?
Answer: The value was 0.8053.

Question: What about the “log2FoldChange PPP2R3A” value (ENSG00000073711, up-regulated list) of the same sequence?
Answer: The value was 0.6253.

Question: And the “log2FoldChange FSCN1” value (ENSG00000075618, up-regulated list)?
Answer: The value was 0.7766.

Question: What about the “log2FoldChange ANKRD13A” value (ENSG00000076513, up-regulated list) of the same sequence?
Answer: Its value is 0.723.

Question: What about the “log2FoldChange DCT” value (ENSG00000080166, up-regulated list) of the same sequence?
Answer: Its value is 0.9874.

Question: What about the “log2FoldChange ATP8B1” value (ENSG00000081923, up-regulated list) of the same sequence?
Answer: The value was 0.9522.

Question: What about the “log2FoldChange SERTAD4” value (ENSG00000082497, up-regulated list) of the same sequence?
Answer: The value was 0.7371.

Question: What about the “log2FoldChange ABCB1” value (ENSG00000085563, up-regulated list) of the same sequence?
Answer: Its value is 0.7955.

Question: And the “log2FoldChange HSD17B2” value (ENSG00000086696, up-regulated list)?
Answer: Its value is 0.6195.

Question: And the “log2FoldChange LAT2” value (ENSG00000086730, up-regulated list)?
Answer: Its value is 0.8215.

Question: And the “log2FoldChange PPP1R15A” value (ENSG00000087074, up-regulated list)?
Answer: The value was 0.8007.

Question: And the “log2FoldChange LYZ” value (ENSG00000090382, up-regulated list)?
Answer: The value was 0.9901.

Question: What about the “log2FoldChange EPB41L4B” value (ENSG00000095203, up-regulated list) of the same sequence?
Answer: The value was 1.165.

Question: What about the “log2FoldChange TBC1D2” value (ENSG00000095383, up-regulated list) of the same sequence?
Answer: The value was 0.7709.

Question: What about the “log2FoldChange IL11” value (ENSG00000095752, up-regulated list) of the same sequence?
Answer: The value was 1.064.

Question: And the “log2FoldChange DSP” value (ENSG00000096696, up-regulated list)?
Answer: The value was 0.6307.

Question: And the “log2FoldChange MISP” value (ENSG00000099812, up-regulated list)?
Answer: The value was 1.058.

Question: And the “log2FoldChange CDHR5” value (ENSG00000099834, up-regulated list)?
Answer: Its value is 0.8144.

Question: And the “log2FoldChange GGT1” value (ENSG00000100031, up-regulated list)?
Answer: The value was 0.8806.

Question: And the “log2FoldChange IL2RB” value (ENSG00000100385, up-regulated list)?
Answer: The value was 0.8537.

Question: What about the “log2FoldChange DHRS2” value (ENSG00000100867, up-regulated list) of the same sequence?
Answer: Its value is 0.8953.

Question: What about the “log2FoldChange PYGB” value (ENSG00000100994, up-regulated list) of the same sequence?
Answer: Its value is 0.8557.

Question: What about the “log2FoldChange SLCO4A1” value (ENSG00000101187, up-regulated list) of the same sequence?
Answer: The value was 1.202.

Question: And the “log2FoldChange LAMA1” value (ENSG00000101680, up-regulated list)?
Answer: The value was 0.7271.

Question: What about the “log2FoldChange SYP” value (ENSG00000102003, up-regulated list) of the same sequence?
Answer: Its value is 1.211.

Question: What about the “log2FoldChange NECAB2” value (ENSG00000103154, up-regulated list) of the same sequence?
Answer: The value was 0.9871.

Question: What about the “log2FoldChange NDRG1” value (ENSG00000104419, up-regulated list) of the same sequence?
Answer: The value was 0.6175.

Question: What about the “log2FoldChange TRMT1” value (ENSG00000104907, up-regulated list) of the same sequence?
Answer: Its value is 0.655.
